The test system of assay [1] is MDA-MB-231. As to the kind of experiment: Induction of ferroptosis in human MDA-MB-231 cells assessed as reduction in cell viability at 10 to 50 uM incubated for 24 hrs by MTT assay. Format: functional, cell-based. As to conditions: dose 10-50 µM. For orientation: Tetrazolium assays rely on reduction of a dye to a coloured formazan, in cell work by metabolically active cells.

Assay [2] deals with T1, Heme oxygenase 1 (Homo sapiens) (UniProt P09601).
T1 sequence (whole entry): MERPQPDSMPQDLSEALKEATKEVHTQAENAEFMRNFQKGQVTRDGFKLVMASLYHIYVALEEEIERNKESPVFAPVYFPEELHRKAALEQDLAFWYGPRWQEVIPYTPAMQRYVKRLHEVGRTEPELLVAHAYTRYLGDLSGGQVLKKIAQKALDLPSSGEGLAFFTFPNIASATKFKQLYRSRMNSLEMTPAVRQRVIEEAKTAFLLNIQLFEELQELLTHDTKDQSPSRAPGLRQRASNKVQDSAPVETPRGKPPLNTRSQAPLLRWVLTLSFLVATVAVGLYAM
As to the kind of experiment: Induction of HO-1 enzymatic activity in human MDA-MB-231 cells assessed as increase in bilirubin formation at 10 uM incubated for 18 hrs in presence of NADPH by double-beam spectrophotometer analysis. Format: cell-based. Particulars: filed as activator.

Assay [3] has as its system MDA-MB-231. As to the kind of experiment: Induction of ferroptosis in human MDA-MB-231 cells assessed as reduction in cell viability at 50 uM incubated for 48 hrs in presence of ferrostatin-1 by MTT assay. Format: functional, cell-based.
In assay [4] the test system is MDA-MB-231. Nature of the assay: Upregulation of HO-1 expression in human MDA-MB-231 cells at 10 uM incubated for 18 hrs by ELISA analysis. It is filed as functional, cell-based. On the technique in general: An ELISA detects its analyte on a solid surface through an enzyme-linked reagent.
Assay [5] relates to MDA-MB-231. As to the kind of experiment: Induction of ferroptosis in human MDA-MB-231 cells assessed as increase in lipid hydroperoxide level at 50 uM incubated for 30 mins in presence of ferrostatin-1. It is filed as functional, cell-based.
The test system of assay [6] is MDA-MB-231. Nature of the assay: Induction of ferroptosis in human MDA-MB-231 cells assessed as reduction in GSH content at 50 uM incubated for 20 mins in presence of ferrostatin-1 by spectrophotometric assay. Format: functional, cell-based.
The subject of assay [7] is MDA-MB-231. As to the kind of experiment: Induction of ferroptosis in human MDA-MB-231 cells assessed as effect on IL-6 level at 50 uM incubated for 5 to 18 hrs in presence of ferrostatin-1 by ELISA analysis. It is filed as functional, cell-based. Particulars: time 5-18 hrs.
The subject of assay [8] is MDA-MB-231. Nature of the assay: Induction of ROS production in human MDA-MB-231 cells assessed as increase in fluorescence intensity measured for 1 to 6 hrs. Particulars: time 1-6 hrs. It is filed as functional, cell-based.
The subject of assay [9] is Cell membrane. As to the kind of experiment: Induction of mitochondrial membrane dysfunction in human MDA-MB-231 cells assessed as increase in green fluorescence intensity incubated for 6 hrs by JC-1 staining based fluorescence microscopic analysis. Format: cell membranes.
Assay [10] relates to Cell membrane. Nature of the assay: Induction of mitochondrial membrane dysfunction in human MDA-MB-231 cells assessed as decrease in red fluorescence intensity incubated for 6 hrs by JC-1 staining based fluorescence microscopic analysis. Format: cell membranes.
Assay [11] deals with MDA-MB-231. As to the kind of experiment: Cytotoxicity against human MDA-MB-231 cells assessed as reduction in cell viability at 50 uM incubated for 48 hrs by MTT assay. Format: functional, cell-based.
Assay [12] deals with MDA-MB-231. Nature of the assay: Cytotoxicity against human MDA-MB-231 cells assessed as reduction in cell viability at 50 uM incubated for 48 hrs in presence of ferrostatin-1 by MTT assay. Format: functional, cell-based.
Assay [13] has as its system MDA-MB-231. As to the kind of experiment: Cytotoxicity against human MDA-MB-231 cells assessed as reduction in cell viability at 50 uM incubated for 48 hrs in presence of Z-VAD-FMK by MTT assay. It is filed as functional, cell-based.
Assay [14] deals with MDA-MB-231. Nature of the assay: Induction of ferroptosis in human MDA-MB-231 cells assessed as decrease in GSH content at 10 to 50 uM incubated for 24 hrs by spectrophotometric assay. Format: functional, cell-based. Particulars: dose 10-50 µM.
Assay [15] relates to MDA-MB-231. As to the kind of experiment: Induction of ferroptosis in human MDA-MB-231 cells assessed as increase in intracellular Fe2+ level at 10 to 50 uM incubated for 18 hrs by colorimetric assay. It is filed as functional, cell-based. As to conditions: dose 10-50 µM.
For assay [16], the system named is MDA-MB-231. Nature of the assay: Induction of ferroptosis in human MDA-MB-231 cells assessed as increase IL-6 level at 50 uM incubated for 5 to 18 hrs by ELISA analysis. It is filed as functional, cell-based. Particulars: time 5-18 hrs.

Activity calls are given as the source filed them. The calls are words filed in the database; no cut-off is given here. Where a SMILES comes first, the peptide text is derived from it. The star is where a group is joined. Cbz = O=C(OCc1ccccc1)*; CH2F = FC*

Regarding `COc1cc(CCOC(=O)/C=C/c2ccc(O)c(O)c2)cc(OC)c1`, the result (in the assay on MDA-MB-231 [1]; in assay [2]; with MDA-MB-231 [3]) was Active.
Take `O=C(/C=C/c1ccccc1)OCCc1c[nH]c2ccccc12`: the result (in the assay with MDA-MB-231 [1]; in the assay with MDA-MB-231 [4]; in assay [2]; in the assay on MDA-MB-231 [3]; with MDA-MB-231 [5]; in the assay with MDA-MB-231 [6]) was Active. The result with MDA-MB-231 [8], in the assay with Cell membrane [9] and in the assay with Cell membrane [10] was Active. For the same molecule, the result in the assay on MDA-MB-231 [7] was inactive.
With `COc1ccc(CCOC(=O)/C=C/c2ccccc2)cc1OC`, the result (in the assay with MDA-MB-231 [1]; in assay [2]) was Active.
As for `COc1ccc(CCOC(=O)/C=C/c2ccc(O)c(O)c2)c(OC)c1`, the result (in the assay on MDA-MB-231 [1]; in [2]) was Active.
Consider `COc1ccc(CCOC(=O)/C=C/c2ccc(O)c(O)c2)cc1`, for which the result (in the assay with MDA-MB-231 [1]; in assay [2]) was Active.
Consider `O=C(/C=C/c1ccc(O)c(O)c1)OCCc1ccccc1`, for which the result with MDA-MB-231 [11], in the assay on MDA-MB-231 [12], with MDA-MB-231 [13], with MDA-MB-231 [14], with MDA-MB-231 [15] and in the assay with MDA-MB-231 [16] was Active. Further, the result in [2] was Active.
Take `CC(C)[C@H](NC(=O)OCc1ccccc1)C(=O)N[C@@H](C)C(=O)N[C@@H](CC(=O)O)C(=O)CF` (Cbz-Val-Ala-Asp-CH2F): the outcome with MDA-MB-231 [11] was Active.
On to `CCOC(=O)c1ccc(NC2CCCCC2)c(N)c1`, for which the outcome with MDA-MB-231 [11] was Active.
On to `COc1ccc(CCOC(=O)/C=C/c2ccc(O)c(O)c2)cc1OC`, for which the result (in the assay with MDA-MB-231 [1]; in assay [2]; in the assay with MDA-MB-231 [3]) was Active.
As for `O=C(/C=C/c1ccc(O)c(O)c1)OCCc1ccc2c(c1)OCO2`, the outcome (in the assay on MDA-MB-231 [1]; in assay [2]) was Active.
As for `COc1ccc(OC)c(CCOC(=O)/C=C/c2ccc(O)c(O)c2)c1`, the result (with MDA-MB-231 [1]; in assay [2]) was Active.
For the molecule `O=C(/C=C/c1ccc(O)c(O)c1)OCCc1c[nH]c2ccccc12`, the result (in the assay on MDA-MB-231 [1]; in assay [2]) was Active.

The values are drawn from ChEMBL document CHEMBL5634189, “Synthesis and in Vitro Evaluation of CAPE Derivatives as Ferroptosis Inducers in Triple Negative Breast Cancer” (ACS Med Chem Lett, 2024).
